Results on 48 compounds are retold here after PubChem BioAssay AID743023 (Sanford-Burnham Center for Chemical Genomics, 2013).

The IC50 is the midpoint of a concentration-inhibition curve.

Activity calls are given as the source filed them.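 How the source made its calls: active means mean IC50 of 15000 nM or lower against heat shock reporter, a sign of off-target artifact; inactive means the rest.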

The assay has as its system C. elegans VP596 hsp-16.2 GFP/RFP heat-shock reporter fluorescence. The assay can be described thus: inhibitors of hsp-16.2 induction by heat – whole organism, C. elegans VP596, GFP/RFP ratio, round 3, counter-screen for SKN-1 inhibitor project, SAR follow-up (AID 743023). For orientation: Counterscreens check selectivity or assay interference.
Consider `Cc1ccc(-c2nc(-c3ccncc3)sc2C)cc1`, for which the IC50 is > 64 µM (inactive).

Regarding `FC(F)(F)c1ccc(-c2csc(-c3ccncc3)n2)cc1`, the IC50 is > 64 µM (inactive).

On to `c1cc(-c2nc(C3CC3)cs2)ccn1`, for which the IC50 is > 64 µM (inactive).

On to `Cc1cccc(-c2csc(-c3ccncc3)n2)c1`, for which the IC50 is > 64 µM (inactive).

With `Clc1ccc(-c2csc(-c3cccnc3)n2)cc1`, the IC50 was > 64 µM (inactive).

On to `COc1ccc(-c2csc(-c3ccccc3)n2)cc1`, for which the IC50 is > 64 µM (inactive).

Regarding `Fc1ccc(-c2csc(-c3cccnc3)n2)cc1`, the IC50 is > 64 µM (inactive).

Consider `Clc1ccc(-c2csc(-c3ccncc3)n2)cc1Cl`, for which the IC50 is > 64 µM (inactive).

Regarding `Cc1ccc(-c2csc(-c3ccncc3)n2)cc1`, the IC50 is > 64 µM (inactive).

With `COC(=O)c1ccc(-c2csc(-c3ccncc3)n2)cc1`, the IC50 is > 64 µM (inactive).

Take `c1ccc(-c2nc(-c3cccnc3)cs2)cc1`: the IC50 is > 64 µM (inactive).

For `Cc1ccc(-c2csc(-c3ccccn3)n2)cc1`, the IC50 was > 64 µM (inactive).

On to `N#Cc1ccc(-c2csc(-c3ccncc3)n2)cc1`, for which the IC50 was > 64 µM (inactive).

Take `COc1ccc(-c2nc(-c3ccncc3)sc2C)cc1`: the IC50 is > 64 µM (inactive).

With `Cc1ccc(-c2csc(C3CCNCC3)n2)cc1`, the IC50 was > 64 µM (inactive).

On to `Cc1ccc(-c2csc(-c3cccnc3)n2)cc1`, for which the IC50 is > 64 µM (inactive).

Turning to `Cc1sc(-c2ccncc2)nc1-c1ccc(F)cc1`, the IC50 is > 64 µM (inactive).

Regarding `Cc1ccccc1-c1csc(-c2ccncc2)n1`, the IC50 was > 64 µM (inactive).

Consider `Cc1ccc(-c2csc(-c3ccccc3)n2)cc1`, for which the IC50 is > 64 µM (inactive).

For `c1ccc(-c2csc(C3CCNCC3)n2)cc1`, the IC50 is > 64 µM (inactive).

As to `Clc1ccc(-c2csc(-c3ccccc3)n2)cc1`, the IC50 was > 64 µM (inactive).

For `Cc1sc(-c2ccncc2)nc1-c1ccccc1`, the IC50 is > 64 µM (inactive).

In the case of `Cc1csc(-c2ccncc2)n1`, the IC50 was > 64 µM (inactive).

Turning to `COc1ccc(-c2csc(-c3ccncc3)n2)cc1`, the IC50 is > 64 µM (inactive).

In the case of `Fc1ccc(-c2csc(C3CCNCC3)n2)cc1`, the IC50 is > 64 µM (inactive).

Turning to `c1ccc(-c2csc(-c3ccccn3)n2)cc1`, the IC50 was > 64 µM (inactive).

Consider `COc1ccccc1-c1csc(-c2ccncc2)n1`, for which the IC50 was > 64 µM (inactive).

Consider `c1ccc(-c2csc(-c3cccnc3)n2)cc1`, for which the IC50 is > 64 µM (inactive).

With `Clc1ccc(-c2csc(-c3ccncc3)n2)c(Cl)c1`, the IC50 is > 64 µM (inactive).

For `COc1ccc(-c2csc(-c3ccccn3)n2)cc1`, the IC50 was > 64 µM (inactive).

For the compound `COc1ccc(-c2csc(C3CCNCC3)n2)cc1`, the IC50 was > 64 µM (inactive).

For the compound `CC(C)(C)c1csc(-c2ccncc2)n1`, the IC50 was > 64 µM (inactive).

With `c1cc(-c2nc(-c3nccs3)cs2)ccn1`, the IC50 was > 64 µM (inactive).

Regarding `Clc1ccccc1-c1csc(-c2ccncc2)n1`, the IC50 was > 64 µM (inactive).

In the case of `CCCc1cc(-c2nc(-c3ccc(NS(C)(=O)=O)cc3)cs2)ccn1`, the IC50 is > 64 µM (inactive).

In the case of `Fc1ccc(-c2csc(-c3ccncc3)n2)cc1`, the IC50 is > 64 µM (inactive).

For the compound `Clc1ccc(-c2csc(C3CCNCC3)n2)cc1`, the IC50 is > 64 µM (inactive).

For `Fc1ccc(-c2csc(-c3ccccc3)n2)cc1`, the IC50 was > 64 µM (inactive).

As to `Cc1sc(C2CCNCC2)nc1-c1ccccc1`, the IC50 was > 64 µM (inactive).

Consider `c1ccc(-c2csc(-c3ccncc3)n2)cc1`, for which the IC50 was > 64 µM (inactive).

Take `Clc1ccc(-c2csc(-c3ccncc3)n2)cc1`: the IC50 is > 64 µM (inactive).

On to `CCCc1cc(-c2nc(-c3ccc(C)cc3)cs2)ccn1`, for which the IC50 was > 64 µM (inactive).

`COc1ccc(-c2csc(-c3cccnc3)n2)cc1`: the IC50 is > 64 µM (inactive).

Turning to `Clc1cccc(-c2csc(-c3ccncc3)n2)c1`, the IC50 is > 64 µM (inactive).

Consider `Clc1ccc(-c2csc(-c3ccccn3)n2)cc1`, for which the IC50 is > 64 µM (inactive).

Take `Cc1sc(-c2ccncc2)nc1-c1ccc(Cl)cc1`: the IC50 was > 64 µM (inactive).

For the compound `Fc1ccc(-c2csc(-c3ccccn3)n2)cc1`, the IC50 is > 64 µM (inactive).

In the case of `COc1cccc(-c2csc(-c3ccncc3)n2)c1`, the IC50 is > 64 µM (inactive).
